{"source": "patent US12691083B2", "about": "“Pharmaceutical composition for preventing or treating attention deficit/hyperactivity disorder, containing KDS2010 as active ingredient” (DANKOOK UNIVERSITY CHEONAN CAMPUS INDUSTRY ACADEMIC …, priority 2021, dated 2026)", "assay_type_in_all_cases": "in vivo", "key": {"[1]": {"tested_on": "Git1 gene-deficient hetero (+/−) mice", "experiment": "Passive avoidance test (fear memory learning ability)", "details": "Git1 hetero type (+/−) mice, KDS2010 orally 10 mg/kg per day", "method": "The hippocampus, one of the regions that affects ADHD, is responsible for functions related to learning and memory. In order to evaluate the effect of ameliorating ADHD upon administration of KDS2010, KDS2010 was administered to Git1 gene-deficient hetero (+/−) mice, an animal model with ADHD, and a passive avoidance test that enables evaluation on a fear memory learning ability in relation to the function of the dentate gyrus in the hippocampus was conducted. The passive avoidance test was performed using a common passive avoidance test device which was a shuttle box divided into two rooms, one of which was equipped with a bright light bulb to create a bright environment that the laboratory animals dislike, while the other room was designed not to allow light to enter such that the laboratory animals may feel comfortable. […] Immediately thereafter, after 24 hours and after 48 hours, the latency time of entering a dark room without an electric shock is measured up to 90 seconds (retention tests 1, 2, and 3).\nThe KDS2010 was orally administered at a concentration of 10 mg/kg per day. The amount (mg) of each drug was calculated according to the weight (kg) of each mouse, followed by dissolution in 100 μL of drinking water. […] The daily amount of water consumed by adult mice older than 7 weeks was administered at a calculated dose of 10 ml/day. […]"}, "[2]": {"tested_on": "Git1 hetero type (+/−) mice", "experiment": "Open field test (hyperactivity, locomotor activity)", "details": "Git1 hetero type (+/−) mice administered KDS2010; movement measured for 10 minutes; FIG. 4", "method": "(§1) The KDS2010 was orally administered at a concentration of 10 mg/kg per day. The amount (mg) of each drug was calculated according to the weight (kg) of each mouse, followed by dissolution in 100 μL of drinking water. Oral administration was performed once a day. The daily amount of water consumed by adult mice older than 7 weeks was administered at a calculated dose of […]. The drug was administered 3 days prior to passive avoidance, and the drug administration was continued during the passive avoidance test. KDS2010 is an inhibitor against monoamine oxidase B (MAOB) and may reduce GABA levels that are increased in astrocytes of the hippocampus.\nADHD is diagnosed based on two main tendencies including a hyperactive type and an inattention type, but the two symptoms don't necessarily occur together. From this point of view, hyperactivity-related abilities should not be impaired in the course of treatment for inattention, which has been determined through an open field test that enables measurement of hyperactivity.\nAn open field test was performed to assess whether there is a behavioral improvement. […] The mice were placed in the center of an open field test cage (30×30×30 cm), and its movement was measured for 10 minutes. The measured videos were analyzed for locomotor activity through ANYmaze."}, "[3]": {"tested_on": "Git1 hetero type (+/−) mice", "experiment": "Self-grooming test", "details": "Git1 hetero type (+/−) mice administered KDS2010; recorded for 10 minutes; compared with wild type (+/+); FIG. 5", "method": "as §1\nFor a self-grooming test, mice were placed in a plastic cylinder with a diameter of 15 cm and a height of 35 cm. In the plastic cylinder, mice were habituated for about 20 minutes, and then self-grooming behavior was recorded for 10 minutes. The duration of the self-grooming behavior was checked through the recorded video, and if there was an interval of 5 seconds, it was measured as different self-grooming. The number of each different self-grooming behavior was expressed as each different self-grooming bout."}}, "data": [{"smiles": "C[C@H](NCc1ccc(-c2ccc(C(F)(F)F)cc2)cc1)C(N)=O", "note": "[KDS2010, (S)-2-(((4′-(trifluoromethyl)-[1,1′-biphenyl]-4-yl)methyl)amino)propenamide]", "values": [{"measurement": "fear memory learning ability", "setting": "[1]; from 3 days prior to and during test, compared with wild type (+/+), FIG. 2", "result": "recovery in the fear memory learning ability, similar to the wild type (+/+) mice"}, {"measurement": "entry time (time to enter the dark room), retention", "setting": "[1]; retention trial, compared with wild type", "result": "entry time recovered closer to the wild type"}, {"measurement": "effect on hyperactivity", "setting": "[2]", "result": "no effect was derived on hyperactivity"}, {"measurement": "self-grooming duration", "setting": "[3]", "result": "decrease to a value similar to the wild type (+/+) mice"}]}]}
